Data: ChEMBL document CHEMBL1201862, “PubChem BioAssay data set” (2004)
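Grown in 96-well plates, cells were treated for 48 hours with each compound at five concentrations. Insufficient inhibition: endpoint recorded as highest concentration tested. Here, GI50 denotes the concentration required for 50% inhibition of growth.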 Activity calls are given as the source filed them. No stated cut-off is given here; in the data, active = GI50 up to about 1.1 µM and inactive = higher.

Key:
Assay in all cases: DTP human tumour cell line panel, 48 h
[1] = system: A498
[2] = system: DMS-273
[3] = system: MOLT-4
[4] = system: UACC-257
[5] = system: DLD-1
[6] = system: NCI-H460
[7] = system: SNB-75
[8] = system: SNB-78
[9] = system: SF-539
[10] = system: SW-620
[11] = system: SNB-19
[12] = system: SK-MEL-28
[13] = system: HOP-62
[14] = system: OVCAR-5
[15] = system: RPMI-8226
[16] = system: KM12
[17] = system: UACC-62
[18] = system: UO-31
[19] = system: HCT-116
[20] = system: SK-OV-3
[21] = system: M14
[22] = system: CCRF-CEM
[23] = system: TK-10
[24] = system: OVCAR-3
[25] = system: Malme-3M
[26] = system: COLO 205
[27] = system: HOP-18
[28] = system: RXF 393
[29] = system: DMS-114
[30] = system: KM-20L2
[31] = system: HCC 2998
[32] = system: CAKI-1
[33] = system: SN12C
[34] = system: OVCAR-8
[35] = system: HL-60
[36] = system: A549
[37] = system: U-251
[38] = system: NCI-H23
[39] = system: SK-MEL-2
[40] = system: LXFL 529
[41] = system: HOP-92
[42] = system: SR
[43] = system: SF-268
[44] = system: EKVX
[45] = system: HT-29
[46] = system: HCT-15
[47] = system: ACHN
[48] = system: SF-295
[49] = system: 786-0
[50] = system: IGROV-1
[51] = system: XF498
[52] = system: K562
[53] = system: SK-MEL-5
[54] = system: NCI-H522
[55] = system: LOX IMVI
[56] = system: OVCAR-4
[57] = system: NCI-H226
[58] = system: M19-MEL

Measured: GI50

CC(C)CC(NC(=O)OC(C)(C)C)C(=O)Nc1ccc(Nc2nc(F)nc(-c3c4ccccc4c4n3CCS4)n2)cc1 (stereo unspecified)
inactive: [1] 26.2 µM | [2] 16.9 µM | [3] 16 µM | [4] 23.6 µM | [5] 20 µM | [6] 14.8 µM | [7] 22.2 µM | [8] 21.2 µM | [9] 20.6 µM | [10] 16.1 µM | [11] 18.2 µM | [12] 23.5 µM | [13] 21.2 µM | [14] 22.4 µM | [15] 24.4 µM | [16] 26.7 µM | [17] 17.2 µM | [18] 19.7 µM | [19] 23.5 µM | [20] 18.8 µM | [21] 20.2 µM | [22] 3.65 µM | [23] 28.8 µM | [24] 20.3 µM | [25] 21.2 µM | [26] 18.9 µM | [27] 24.4 µM | [28] 34 µM | [29] 20.1 µM | [30] 18.3 µM | [31] 18 µM | [32] 18.2 µM | [33] 21.6 µM | [34] 22 µM | [35] 21.9 µM | [36] 48.4 µM | [37] 18.8 µM | [38] 18.7 µM | [39] 18.2 µM | [40] 19.5 µM | [41] 18.8 µM | [42] 14.1 µM | [43] 31.4 µM | [44] 19.7 µM | [45] 19.2 µM | [47] 24.3 µM | [48] 20.9 µM | [49] 19.8 µM | [50] 24 µM | [51] 25.2 µM | [52] 26.8 µM | [53] 23.7 µM | [54] 15.3 µM
16.3 µM: [46]

COc1ccc2c(c1)CCN1C3=C(CCC3)C(=O)C[C@@H]21
> 100 µM: [46]
inactive: [1] 62.2 µM | [2] > 100 µM | [55] > 100 µM | [3] > 100 µM | [4] > 100 µM | [6] > 100 µM | [7] 44.9 µM | [8] > 100 µM | [9] > 100 µM | [10] > 100 µM | [11] > 100 µM | [12] > 100 µM | [13] > 100 µM | [14] 89.9 µM | [15] > 100 µM | [16] > 100 µM | [17] > 100 µM | [18] 43.6 µM | [19] > 100 µM | [20] > 100 µM | [21] > 100 µM | [22] > 100 µM | [23] 44.7 µM | [24] > 100 µM | [25] > 100 µM | [26] > 100 µM | [56] > 100 µM | [27] > 100 µM | [28] > 100 µM | [29] 81.7 µM | [30] > 100 µM | [31] > 100 µM | [32] > 100 µM | [33] > 100 µM | [34] > 100 µM | [57] > 100 µM | [35] 23.2 µM | [36] > 100 µM | [37] > 100 µM | [38] > 100 µM | [39] > 100 µM | [40] > 100 µM | [41] > 100 µM | [42] 31.1 µM | [43] > 100 µM | [44] > 100 µM | [45] > 100 µM | [47] > 100 µM | [48] > 100 µM | [49] > 100 µM | [50] > 100 µM | [51] 15.9 µM | [52] > 100 µM | [53] > 100 µM | [58] > 100 µM | [54] > 100 µM
